Laboratory results: US10377741B2, “Substituted heteroaryl aldehyde compounds and methods for their use in increasing tissue oxygenation” (Global Blood Therapeutics, Inc., priority 2011, dated 2019)

How the values were obtained:
whole blood = assay: Whole blood assay: oxygen equilibrium curves of whole blood; type: cell-based, human (homozygous sickle cell patients); settings: compound at 1000 μM; hematocrit 20%, 1 hour at 37° C.
Summary of the method: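 Homozygous sickle cell patient blood, hematocrit 20% in autologous plasma, incubated 1 h at 37° C with or without compound (1000 μM unless noted). Diluted into Hemox buffer pH 7.4, oxygenated then deoxygenated with nitrogen; OEC fitted to Hill model for p50, reported as delta p50%.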

HbS/A = target: T1, HbS/A (Homo sapiens, UniProt P68871+P69905, E7V); assay: R/T assay (relaxed-to-tense transition under deoxygenated conditions); type: biochemical, human (homozygous sickle cell patients); settings: 3 μM HbS/A, % R remaining vs no treatment
T1 construct: A mixture of HbS/A was purified from blood; from tissue; host or cells: blood of homozygous sickle cell patients (CHORI)
Summary of the method: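 Purified HbS/A (3 μM final) incubated 1 hr at 37° C with compounds (3 μM to 100 μM) in potassium phosphate buffer pH 7.4 with 30 μM DPG, then deoxygenated under N2 with 300–700 nm spectra every 5 min for 2 hours. Delta R is % R state retained versus untreated, by linear regression over all wavelengths.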

purified HBS = target: T2, purified HBS (Homo sapiens, UniProt P68871+P69905, E7V); assay: Polymerization assay (delay time of HbS polymerization); type: biochemical, human (homozygous sickle cell patients); settings: percent delay (% DT) vs HBS alone; 50 μM purified HBS, 1.8 M potassium phosphate pH 7.4
T2 construct: HbS was purified by a modified procedure; from tissue; host or cells: blood of homozygous sickle cell patients (CHORI); for the polymerization assay purified by the CRO VIRUSYS
Protocol: Polymerization assays are carried out in vitro using purified HBS exchanged into 1.8 M potassium phosphate buffer at pH 7.4. Using a slightly modified protocol (Antonini and Brunori, 1971), HbS is purified by the CRO VIRUSYS, from blood obtained from homozygous sickle cell patients through the Hemoglobinopathy Center at Children's Hospital Oakland Research Institute (CHORI) with Institutional Review Board approval. Compounds are prepared in 100% DMSO and a desired amount is added to 50 μM of purified HBS at a final DMSO concentration of 0.3%. Final potassium phosphate concentration is adjusted to 1.8 M using a combination of 2.5 M potassium phosphate stock solution and water at pH 7.4. The reaction mixture is incubated for an hour at 37° C. and then transferred into a 24-well plate for deoxygenation in a glove box containing 99.5% nitrogen and 0.5% oxygen. The 24-well plate is not covered and incubated at 4° C. on a plate cooler inside the glove box for one and a half hours. Fifty μL of the reaction mixture is transferred into a 96-well plate and the absorbance at 700 nm is measured every minute for one hour at 37° C. in a plate reader located inside the glove box. A plot of the absorbance against time is fitted using a Boltzman sigmoidal fit and the delay time (from zero to time at half Vmax) is measured. To compare and rank compounds, delay times are expressed as percent delay (% DT), which is defined as the difference in delay times for HBS/compound and HBS alone multiplied by 100 and divided by the delay time for HBS alone.
Compounds listed below have been tested in the polymerization assay. Activity ranges are defined by the number of dagger (†) symbols indicated. † denotes activity ≥40% but ≤80%; †† denotes activity >80% but ≤120%; ††† denotes activity >120% but ≤140%; †††† denotes activity >160%.

human HbS = settings: transgenic mice producing human HbS, cited from earlier work
hemoglobin = hemoglobin (Homo sapiens, UniProt P68871+P69905); settings: in vitro and in vivo; cited from earlier work
[1] = target: T3, purified Hemoglobin S (HbS) (Homo sapiens, UniProt P68871+P69905, E7V); assay: Modulation of hemoglobin oxygen affinity: oxygen equilibrium curves (HEMOX) in purified HbS; type: biochemical, human (homozygous sickle cell patients); settings: compound at 30 μM; 25 μM purified HbS, 45 min at 37° C.
T3 construct: HbS was purified by a modified procedure; from tissue; host or cells: blood of homozygous sickle cell patients (CHORI); for the polymerization assay purified by the CRO VIRUSYS
Summary of the method: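 HbS from homozygous sickle cell patient blood, 25 μM in HEMOX buffer pH 7.4, incubated 45 min at 37° C with compound (30 μM unless noted). Air-saturated then deoxygenated with N2; p50 from Hill fit; delta p50% = (control p50 − treated p50)/control p50 × 100.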

SMILES	melting point [°C]	delta R (HbS/A; compound at 9 μM)	% delta Delay (purified HBS)	delta p50% [1]	delta R (HbS/A; compound at 30 μM)	delta R (HbS/A; compound at 3 μM)	delta p50% Values for Whole Blood Assay (whole blood)	survival times (human HbS; extreme hypoxia (5% oxygen))	hypoxia-induced sickled red blood cells (human HbS; hypoxic conditions, compared to the non-treated mice)	hemoglobin modulator activity (hemoglobin)
Cl.O=Cc1ccncc1OCc1ccc(C(=O)O)cn1	192 to 194									
O=Cc1ccc(CO)o1 [Compound 5HMF, 5-hydroxymethyl-2-furfuraldehyde]								significantly improved survival times	reduced amounts of hypoxia-induced sickled red blood cells	potent hemoglobin modulator both in vitro and in vivo
COc1cc(C=O)c(OCc2cccnc2-c2ccnn2CC(F)(F)F)cn1 [Compound 174, 2-methoxy-5-((2-(1-(2,2,2-trifluoroethyl)-1-pyrazol-5-yl)pyridin-3-yl)methoxy)isonicotinaldehyde]			†† (activity >80% but ≤120%)	+++ (a delta p50% of 50 or greater)	++ (a delta R of between 30 and 50)		+++ (a delta p50% of 50 or greater)			
Cc1ccc(OCc2cccnc2-c2ccnn2C(C)C)c(C=O)n1 [Compound 177, 3-((2-(1-isopropyl-1H-pyrazol-5-yl)pyridin-3-yl)methoxy)-6-methylpicolinaldehyde]			† (activity ≥40% but ≤80%)	+++ (a delta p50% of 50 or greater)		+ (a delta R of between 0 and 30)	+++ (a delta p50% of 50 or greater)			
CCn1nccc1-c1ncccc1COc1cnc(OC)cc1C=O [Compound 149, 5-((2-(1-ethyl-1H-pyrazol-5-yl)pyridin-3-yl)methoxy)-2-methoxyisonicotinaldehyde]		+ (a delta R of between 0 and 30)	† (activity ≥40% but ≤80%)	+++ (a delta p50% of 50 or greater)			+++ (a delta p50% of 50 or greater)			
CC(C)n1nccc1-c1ncccc1COc1cccnc1C=O [Compound 176, 3-((2-(1-isopropyl-1H-pyrazol-5-yl)pyridin-3-yl)methoxy)picolinaldehyde]		+ (a delta R of between 0 and 30)	† (activity ≥40% but ≤80%)	+++ (a delta p50% of 50 or greater)			+++ (a delta p50% of 50 or greater)			
O=Cc1c(O)cncc1OCc1ccccc1 [Compound 187, 3-(benzyloxy)-5-hydroxyisonicotinaldehyde]		+++ (a delta R of 50 or greater)	†† (activity >80% but ≤120%)	++ (a delta p50% of between 30 and 50)			+ (a delta p50% of between 0 and 29)			

Further lines, with some results ahead:

melting point [°C]	delta R (HbS/A; compound at 9 μM)	% delta Delay (purified HBS)	delta p50% [1]	delta R (HbS/A; compound at 30 μM)	delta R (HbS/A; compound at 3 μM)	SMILES	delta p50% Values for Whole Blood Assay (whole blood)	survival times (human HbS; extreme hypoxia (5% oxygen))	hypoxia-induced sickled red blood cells (human HbS; hypoxic conditions, compared to the non-treated mice)	hemoglobin modulator activity (hemoglobin)
102 to 104	+ (a delta R of between 0 and 30)	††† (activity >120% but ≤140%)				CS(=O)(=O)NC(=O)c1ccc(COc2cnccc2C=O)nc1 [Compound 206, 2,2,2-trifluoroacetic acid:6-(((4-formylpyridin-3-yl)oxy)methyl)-N-(methylsulfonyl)nicotinamide (2:1)]	+++ (a delta p50% of 50 or greater)			
	+ (a delta R of between 0 and 30)	††† (activity >120% but ≤140%)	+++ (a delta p50% of 50 or greater)			COc1cc(C=O)c(OCc2cccnc2-c2ccnn2CC(=O)O)cn1 [Compound 199, 2-(5-(3-((4-formyl-6-methoxypyridin-3-yloxy)methyl)pyridin-2-yl)-1H-pyrazol-1-yl)acetic acid]	+ (a delta p50% of between 0 and 29)			
	+ (a delta R of between 0 and 30)	††† (activity >120% but ≤140%)	+++ (a delta p50% of 50 or greater)			COc1cc(C=O)c(OCc2cccnc2-c2ccnn2CCC(=O)O)cn1 [Compound 202, 3-(5-(3-(((4-formyl-6-methoxypyridin-3-yl)oxy)methyl)pyridin-2-yl)-1H-pyrazol-1-yl)propanoic acid]	+ (a delta p50% of between 0 and 29)			
